Converted amounts (≈) assume the structure as drawn.
Tests used:
[1] = test system: Mycobacterium tuberculosis; assay: Antimycobacterial activity against isoniazid-resistant Mycobacterium tuberculosis by two fold agar dilution method; type: functional
[2] = test system: Mycobacterium tuberculosis; assay: Ratio of MIC for isoniazid-resistant Mycobacterium tuberculosis to MIC for Mycobacterium tuberculosis H37Rv; type: functional

| SMILES | MIC [1] [µg/mL] | Ratio [2] |
| --- | --- | --- |
| Cc1c(NCc2nnc(Nc3ccc(F)c(Cl)c3)o2)c(=O)n(-c2ccccc2)n1C | 10 (≈ 23.3 µM) |  |
| Cc1c(NCc2nnc(Nc3ccc(F)cc3)o2)c(=O)n(-c2ccccc2)n1C | 3.12 (≈ 7.91 µM) | 4 |
| Cc1c(NCc2nnc(Nc3ccc(Cl)cc3)o2)c(=O)n(-c2ccccc2)n1C | 10 (≈ 24.3 µM) |  |
| Cc1c(NCc2nnc(Nc3ccc(Br)cc3)o2)c(=O)n(-c2ccccc2)n1C | 12.5 (≈ 27.5 µM) |  |
| Cc1c(NCc2nnc(Nc3ccccc3Cl)o2)c(=O)n(-c2ccccc2)n1C | > 12.5 |  |
| Cc1c(Cl)cccc1Nc1nnc(CNc2c(C)n(C)n(-c3ccccc3)c2=O)o1 | > 12.5 |  |
| Cc1c(NCc2nnc(Nc3ccc([N+](=O)[O-])cc3)o2)c(=O)n(-c2ccccc2)n1C | 6.25 (≈ 14.8 µM) |  |
| Cc1ccc(Nc2nnc(CNc3c(C)n(C)n(-c4ccccc4)c3=O)o2)cc1 | > 12.5 |  |
| COc1ccc(Nc2nnc(CNc3c(C)n(C)n(-c4ccccc4)c3=O)o2)cc1 | > 12.5 |  |
| Cc1ccc(Nc2nnc(CNc3c(C)n(C)n(-c4ccccc4)c3=O)o2)c(C)c1 | > 12.5 |  |
| Cc1cccc(C)c1Nc1nnc(CNc2c(C)n(C)n(-c3ccccc3)c2=O)o1 | > 12.5 |  |
| Cc1c(NCc2nnc(Nc3ccc(O)cc3)o2)c(=O)n(-c2ccccc2)n1C | 12.5 (≈ 31.9 µM) |  |
| Cc1c(NCc2nnc(Nc3ccc(S(N)(=O)=O)cc3)o2)c(=O)n(-c2ccccc2)n1C | 12.5 (≈ 27.4 µM) |  |
| Cc1c(NCc2nnc(Nc3ccccc3)o2)c(=O)n(-c2ccccc2)n1C | > 12.5 |  |
| NNC(=O)c1ccncc1 [ISONIAZID] | 12.5 (≈ 91.1 µM) |  |

From ChEMBL document CHEMBL1938310, “Discovery of novel antitubercular 1,5-dimethyl-2-phenyl-4-([5-(arylamino)-1,3,4-oxadiazol-2-yl]methylamino)-1,2-dihydro-3H-pyrazol-3-one analogues” (Bioorg Med Chem Lett, 2012)
